In patent US11491224B2, “Bladder cancer photodynamic therapeutic agents with off-on magnetic resonance imaging enhancement” (Hong Kong Baptist University, priority 2018, dated 2022):
Read-outs that look alike come from different tables or passages of the source.

Experiments:
[1] = in PBS buffer, reference value; cited from earlier work
[2] = T1 and T2 relaxivity measurements; type: physicochemical
Protocol: t1 relaxivity of the proposed MR-available PDT agent—NLPor-Gd-L1Rn (n=1 to 3) was measured. […] Without wishing to be bound by theory, this difference in relaxivity could be due to the different coordinative numbers of them: for NLPor-Gd-L1Rn, (n=1 to 3) the coordinative protection for the central Gd^3+ ion is better than that of Gd-DOTA, so the Gd^3+ ion in NLPor-Gd-L1Rn (n=1 to 3) has less chance to exchange with water protons compared to Gd-DOTA. The responsive t1 of NLPor-Gd-L1Rn (n=1-3) have been evaluated with the addition of different concentrations of αvβ3 integrin. […] (FIG. 6). When the αvβ3 integrin (targeting) binding might readily interact with two molecules and affect t1 relaxivity from 2nd or outer coordination spheres. The t1 relaxivity of NLPor-Gd-L1R3 is enhanced from 0.2847 mM^−1s^−1 to 3.225 mM^−1s^−1 with the addition of αvβ3 integrin.
t1 relaxivity of the proposed MR-available PDT agent—M-NLPor-Cyc-L2An (n=1 or 2) was measured. […]
The absorption and emission spectra of Zn-NLPorB2-Cyc-Gd-L2A2 and its precursor without Gd, Zn-NLPorB2-Cyc-L2A2 were measured in aqueous solution (FIGS. 54b and 54c). […] The singlet oxygen quantum yields (ΦΔ) of Zn-NLPorB2-Cyc-Gd-L2A2 and Zn-NLPorB2-Cyc-L2A2 were measured in CHCl3 and calculated by comparing to a reference compound tetraphenylporphyrin, H2TPP, (ΦΔ=0.55 in CHCl3). […]

[3] = test system: T24 bladder cancer xenografts; conditions: 100 μmol/kg (0.1 mmol/kg gadolinium), tail vein injection
Protocol: MRI signal enhancement was assessed by performing in vivo MRI measurements in three BALB/c nude mice bearing T24 bladder cancer xenografts. Three tumor models were developed by subcutaneous injection of T24 bladder cancer cells. […] MR images were acquired before and after tail vein injection of 200 μl of each sample at various time points.
MR images were acquired before and after 200 μL tail vein injection of each subject at various times.

SMILES | singlet oxygen quantum yield of reference (ΦRB) [1] | T1 relaxivity ([2]; 1.4T in water with 3% DMSO, 37° C.) | T1 relaxivity (r1) ([2]; 1.5 T in water (3% DMSO)) | post-injection MRI signal enhancement [3] | post-injection MRI signal enhancement ([3]; listed as GdDOTA)
O=C1OC2(c3cc(I)c(O)c(I)c3Oc3c2cc(I)c(O)c3I)c2c(Cl)c(Cl)c(Cl)c(Cl)c21 [RB, Rose Bengal] | 0.75 |  |  |  | 
O=C([O-])CN1CCN(CC(=O)[O-])CCN(CC(=O)O)CCN(CC(=O)[O-])CC1.[Gd+3] [Gd-DOTA, reference compound] |  | 2.92 mM⁻¹ s⁻¹ | 2.92 mM⁻¹ s⁻¹ | weak post-injection signal enhancement | Weak post injection signal enhancement
